ChEMBL document CHEMBL1201862, “PubChem BioAssay data set” (2004)
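Each compound was tested at five concentrations against cells in 96-well plates for 48 hours. At the GI50, growth is halved.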 Active and inactive are the calls of the source. No stated cut-off is given here; in the data, active = GI50 up to about 1.1 µM and inactive = higher.

Key:
Experiment in all cases: NCI tumour cell line growth inhibition, 48 h
SF-539 = system: SF-539
UACC-62 = system: UACC-62
NCI-H23 = system: NCI-H23
SF-295 = system: SF-295
RXF 393 = system: RXF 393
MOLT-4 = system: MOLT-4
CCRF-CEM = system: CCRF-CEM
SK-MEL-2 = system: SK-MEL-2
UACC-257 = system: UACC-257
K562 = system: K562
A498 = system: A498
U-251 = system: U-251
SN12C = system: SN12C
SF-268 = system: SF-268
SK-MEL-28 = system: SK-MEL-28
HCC 2998 = system: HCC 2998
EKVX = system: EKVX
DMS-273 = system: DMS-273
SK-OV-3 = system: SK-OV-3
HT-29 = system: HT-29

Measured: GI50

NC(=O)CCC(N=C(N)c1csc(C2OC(CO)C(O)C2O)n1)C(=O)O (configuration not stated)
inactive: SF-539 > 100 µM | UACC-62 > 100 µM | NCI-H23 > 100 µM | SF-295 > 100 µM | RXF 393 > 100 µM | MOLT-4 > 100 µM | CCRF-CEM > 100 µM | SK-MEL-2 > 100 µM | UACC-257 > 100 µM | K562 > 100 µM | A498 > 100 µM | U-251 > 100 µM | SN12C > 100 µM | SF-268 > 100 µM | SK-MEL-28 > 100 µM | HCC 2998 > 100 µM | EKVX > 100 µM | DMS-273 > 100 µM | SK-OV-3 > 100 µM | HT-29 > 100 µM

CC(C)(C)C1(c2ccc(C3(c4ccccc4)Oc4ccccc4S3)[nH]2)Oc2ccccc2S1 (configuration not stated)
inactive: SF-539 > 100 µM | UACC-62 > 100 µM | NCI-H23 > 100 µM | SF-295 > 100 µM | RXF 393 > 100 µM | MOLT-4 65.5 µM | CCRF-CEM > 100 µM | SK-MEL-2 > 100 µM | UACC-257 92.9 µM | K562 > 100 µM | U-251 > 100 µM | SN12C > 100 µM | SF-268 > 100 µM | HCC 2998 > 100 µM | EKVX > 100 µM | DMS-273 > 100 µM | SK-OV-3 > 100 µM | HT-29 > 100 µM

O=C1C(Cl)N(c2ccc(Cl)cc2Cl)C1c1c[nH]c2ccccc12 (configuration not stated)
inactive: SF-539 > 100 µM | UACC-62 > 100 µM | NCI-H23 92.3 µM | SF-295 > 100 µM | RXF 393 74 µM | MOLT-4 > 100 µM | CCRF-CEM > 100 µM | SK-MEL-2 > 100 µM | UACC-257 > 100 µM | K562 > 100 µM | U-251 > 100 µM | SN12C > 100 µM | SF-268 > 100 µM | SK-MEL-28 > 100 µM | EKVX 54 µM | SK-OV-3 > 100 µM | HT-29 > 100 µM

Cn1cnc(/C=C/C#N)c1
inactive: SF-539 > 100 µM | UACC-62 > 100 µM | NCI-H23 > 100 µM | SF-295 > 100 µM | RXF 393 > 100 µM | MOLT-4 > 100 µM | CCRF-CEM > 100 µM | SK-MEL-2 > 100 µM | UACC-257 > 100 µM | K562 > 100 µM | A498 > 100 µM | U-251 > 100 µM | SN12C > 100 µM | SF-268 > 100 µM | SK-MEL-28 > 100 µM | HCC 2998 > 100 µM | EKVX > 100 µM | SK-OV-3 > 100 µM | HT-29 > 100 µM

COC(=O)C1=C(O)C(C(=O)OC)[C@@]2(O)[C@@H](C(=O)OC)CC[C@@H]1[C@@H]2C(=O)OC (some centres not stated)
inactive: SF-539 18.6 µM | UACC-62 30 µM | NCI-H23 17.8 µM | RXF 393 12.2 µM | MOLT-4 29.4 µM | CCRF-CEM 25.2 µM | SK-MEL-2 16 µM | UACC-257 27.4 µM | K562 25.4 µM | A498 16.5 µM | U-251 22.3 µM | SN12C 25.4 µM | SF-268 29.4 µM | SK-MEL-28 27.9 µM | HCC 2998 16.4 µM | EKVX 23 µM | SK-OV-3 19.2 µM | HT-29 > 100 µM

COc1cc2c(cc1OC)C1Cc3sccc3CN1CC2 (configuration not stated)
inactive: SF-539 > 100 µM | UACC-62 > 100 µM | NCI-H23 > 100 µM | SF-295 > 100 µM | RXF 393 > 100 µM | MOLT-4 > 100 µM | CCRF-CEM > 100 µM | SK-MEL-2 > 100 µM | UACC-257 > 100 µM | K562 > 100 µM | U-251 > 100 µM | SN12C > 100 µM | SF-268 > 100 µM | HCC 2998 > 100 µM | EKVX > 100 µM | DMS-273 > 100 µM | SK-OV-3 > 100 µM | HT-29 > 100 µM

CCOC(=O)C(NC(C)=O)(Nc1ccc(F)cc1)C(F)(F)F (configuration not stated)
inactive: SF-539 > 100 µM | UACC-62 18.2 µM | NCI-H23 > 100 µM | SF-295 16.6 µM | RXF 393 40.3 µM | MOLT-4 90.6 µM | CCRF-CEM > 100 µM | SK-MEL-2 > 100 µM | UACC-257 > 100 µM | K562 2.61 µM | U-251 16.5 µM | SN12C > 100 µM | SF-268 > 100 µM | SK-MEL-28 > 100 µM | HCC 2998 5.18 µM | EKVX > 100 µM | SK-OV-3 > 100 µM | HT-29 > 100 µM

O=c1c(Cc2ccc(Cc3c(O)oc4ccccc4c3=O)cc2)c(O)oc2ccccc12
inactive: SF-539 > 100 µM | UACC-62 > 100 µM | NCI-H23 > 100 µM | SF-295 > 100 µM | RXF 393 > 100 µM | MOLT-4 > 100 µM | CCRF-CEM > 100 µM | SK-MEL-2 > 100 µM | UACC-257 > 100 µM | K562 > 100 µM | A498 > 100 µM | U-251 > 100 µM | SN12C > 100 µM | SF-268 > 100 µM | SK-MEL-28 > 100 µM | HCC 2998 > 100 µM | EKVX > 100 µM | SK-OV-3 > 100 µM | HT-29 > 100 µM
